Like-named read-outs stand apart in the source and are kept apart here.
Assays:
Type in all cases: cell-based
ER [1] = biological target: T1, ER (Homo sapiens, UniProt P03372); test: co-transfection assay, ER agonist
T1 construct: expressed in transfected cells; host or cells: CV-1 cells
Method: (§1) CV-1 cells (African green monkey kidney fibroblasts) were cultured in the presence of Dulbecco's Modified Eagle Medium (DMEM) supplemented with 10% charcoal resin-stripped fetal bovine serum (CH-FBS) then transferred to 96-well microtiter plates one day prior to transfection.
(§2) Three to four replicates were used for each sample.
(§3) After 40 hours, the cells were washed with PBS, lysed with a Triton X-100-based buffer and assayed for LUC and β-Gal activities using a luminometer or spectrophotometer, respectively. For each replicate, the normalized response (NR) was calculated as: […]

ER [2] = biological target: T1, ER; test: co-transfection assay, ER antagonist
Method: as §1, §2, §3

hAR [3] = biological target: T2, hAR (Homo sapiens, UniProt P10275); test: co-transfection assay, AR agonist, CV-1 cells
T2 construct: expressed in transfected cells; host or cells: CV-1 cells (African green monkey kidney fibroblasts)
T2 sequence (P10275 1-920): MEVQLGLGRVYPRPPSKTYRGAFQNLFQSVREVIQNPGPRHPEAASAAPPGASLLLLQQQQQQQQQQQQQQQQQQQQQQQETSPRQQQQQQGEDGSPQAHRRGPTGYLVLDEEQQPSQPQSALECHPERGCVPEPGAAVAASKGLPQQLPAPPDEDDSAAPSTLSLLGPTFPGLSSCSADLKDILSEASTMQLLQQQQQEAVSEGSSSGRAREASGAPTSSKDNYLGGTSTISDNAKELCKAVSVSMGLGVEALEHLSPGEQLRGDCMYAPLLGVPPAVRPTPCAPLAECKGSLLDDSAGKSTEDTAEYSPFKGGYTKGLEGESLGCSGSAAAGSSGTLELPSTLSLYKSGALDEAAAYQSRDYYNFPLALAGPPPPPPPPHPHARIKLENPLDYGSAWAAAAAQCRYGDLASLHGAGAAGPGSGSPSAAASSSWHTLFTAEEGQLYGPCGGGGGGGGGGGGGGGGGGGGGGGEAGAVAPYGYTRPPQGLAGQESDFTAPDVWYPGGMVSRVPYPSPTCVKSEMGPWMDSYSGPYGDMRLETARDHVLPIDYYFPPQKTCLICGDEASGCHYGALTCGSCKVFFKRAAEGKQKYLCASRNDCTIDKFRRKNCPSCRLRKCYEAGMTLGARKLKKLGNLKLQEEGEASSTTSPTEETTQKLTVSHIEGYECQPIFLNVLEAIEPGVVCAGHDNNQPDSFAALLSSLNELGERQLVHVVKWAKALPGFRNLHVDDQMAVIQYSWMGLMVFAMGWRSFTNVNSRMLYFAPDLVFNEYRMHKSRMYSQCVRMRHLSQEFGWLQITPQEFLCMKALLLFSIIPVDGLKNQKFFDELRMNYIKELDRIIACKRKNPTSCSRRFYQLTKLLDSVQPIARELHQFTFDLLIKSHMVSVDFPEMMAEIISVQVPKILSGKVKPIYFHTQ

hAR [4] = biological target: T2, hAR; test: co-transfection assay, AR antagonist (in presence of DHT), CV-1 cells
PR [5] = biological target: T3, PR (Homo sapiens, UniProt P06401); test: co-transfection assay, PR agonist
T3 construct: expressed in transfected cells; host or cells: CV-1 cells
T3 sequence (P06401 1-933): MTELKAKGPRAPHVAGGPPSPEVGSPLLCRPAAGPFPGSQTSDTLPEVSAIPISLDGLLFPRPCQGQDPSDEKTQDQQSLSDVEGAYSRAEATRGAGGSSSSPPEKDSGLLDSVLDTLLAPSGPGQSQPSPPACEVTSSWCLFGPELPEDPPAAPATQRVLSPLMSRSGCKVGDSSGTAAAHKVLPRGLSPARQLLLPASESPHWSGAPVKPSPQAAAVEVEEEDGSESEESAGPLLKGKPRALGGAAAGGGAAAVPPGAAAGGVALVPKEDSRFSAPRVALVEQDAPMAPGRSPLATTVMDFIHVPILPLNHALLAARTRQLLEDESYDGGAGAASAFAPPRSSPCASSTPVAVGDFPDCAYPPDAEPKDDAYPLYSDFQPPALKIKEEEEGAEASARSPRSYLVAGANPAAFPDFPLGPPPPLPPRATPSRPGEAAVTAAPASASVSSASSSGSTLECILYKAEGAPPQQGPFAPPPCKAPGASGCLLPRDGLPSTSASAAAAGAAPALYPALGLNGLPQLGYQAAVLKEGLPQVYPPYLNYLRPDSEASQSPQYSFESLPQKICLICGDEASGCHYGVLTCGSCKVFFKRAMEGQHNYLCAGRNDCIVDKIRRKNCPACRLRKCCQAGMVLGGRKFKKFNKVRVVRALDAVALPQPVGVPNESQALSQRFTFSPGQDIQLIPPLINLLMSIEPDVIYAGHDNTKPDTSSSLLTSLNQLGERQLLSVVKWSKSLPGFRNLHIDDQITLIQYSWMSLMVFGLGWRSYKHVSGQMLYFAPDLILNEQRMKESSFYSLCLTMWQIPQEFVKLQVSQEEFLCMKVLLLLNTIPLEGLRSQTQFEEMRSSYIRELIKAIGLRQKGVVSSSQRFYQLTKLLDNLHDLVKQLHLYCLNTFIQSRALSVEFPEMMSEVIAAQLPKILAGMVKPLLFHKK
Method: as §1, §2, §3

PR [6] = biological target: T3, PR; test: co-transfection assay, PR antagonist (in presence of progesterone)
Method: as §1, §2, §3

GR = biological target: T4, GR (Homo sapiens, UniProt P04150); test: co-transfection assay, GR antagonist
T4 construct: expressed in transfected cells; host or cells: CV-1 cells
T4 sequence (P04150 1-777): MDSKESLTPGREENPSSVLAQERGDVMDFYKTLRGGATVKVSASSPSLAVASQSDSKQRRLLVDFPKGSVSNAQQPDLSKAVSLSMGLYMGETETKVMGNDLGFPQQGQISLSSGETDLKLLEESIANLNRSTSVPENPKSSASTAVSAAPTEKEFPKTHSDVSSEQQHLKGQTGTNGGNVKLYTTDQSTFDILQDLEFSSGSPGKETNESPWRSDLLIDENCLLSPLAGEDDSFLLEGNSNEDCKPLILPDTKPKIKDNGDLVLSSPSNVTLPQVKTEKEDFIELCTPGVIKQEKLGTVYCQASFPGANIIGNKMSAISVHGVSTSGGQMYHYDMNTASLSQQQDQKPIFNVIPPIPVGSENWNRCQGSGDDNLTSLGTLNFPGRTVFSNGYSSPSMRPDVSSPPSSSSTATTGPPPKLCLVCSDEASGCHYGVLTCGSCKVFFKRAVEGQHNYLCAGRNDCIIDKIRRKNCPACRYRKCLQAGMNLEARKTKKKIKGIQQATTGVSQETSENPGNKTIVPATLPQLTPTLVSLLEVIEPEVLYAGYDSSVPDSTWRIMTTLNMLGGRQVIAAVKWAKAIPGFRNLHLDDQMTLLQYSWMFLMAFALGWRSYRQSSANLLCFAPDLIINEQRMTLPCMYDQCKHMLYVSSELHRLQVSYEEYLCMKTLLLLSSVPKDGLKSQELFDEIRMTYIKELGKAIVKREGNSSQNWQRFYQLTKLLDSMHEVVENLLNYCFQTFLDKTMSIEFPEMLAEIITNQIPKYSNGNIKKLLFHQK
Method: as §1, §2, §3

MR = biological target: T5, MR (Homo sapiens, UniProt P08235); test: co-transfection assay, MR antagonist
T5 construct: expressed in transfected cells; host or cells: CV-1 cells
T5 sequence (P08235 1-984): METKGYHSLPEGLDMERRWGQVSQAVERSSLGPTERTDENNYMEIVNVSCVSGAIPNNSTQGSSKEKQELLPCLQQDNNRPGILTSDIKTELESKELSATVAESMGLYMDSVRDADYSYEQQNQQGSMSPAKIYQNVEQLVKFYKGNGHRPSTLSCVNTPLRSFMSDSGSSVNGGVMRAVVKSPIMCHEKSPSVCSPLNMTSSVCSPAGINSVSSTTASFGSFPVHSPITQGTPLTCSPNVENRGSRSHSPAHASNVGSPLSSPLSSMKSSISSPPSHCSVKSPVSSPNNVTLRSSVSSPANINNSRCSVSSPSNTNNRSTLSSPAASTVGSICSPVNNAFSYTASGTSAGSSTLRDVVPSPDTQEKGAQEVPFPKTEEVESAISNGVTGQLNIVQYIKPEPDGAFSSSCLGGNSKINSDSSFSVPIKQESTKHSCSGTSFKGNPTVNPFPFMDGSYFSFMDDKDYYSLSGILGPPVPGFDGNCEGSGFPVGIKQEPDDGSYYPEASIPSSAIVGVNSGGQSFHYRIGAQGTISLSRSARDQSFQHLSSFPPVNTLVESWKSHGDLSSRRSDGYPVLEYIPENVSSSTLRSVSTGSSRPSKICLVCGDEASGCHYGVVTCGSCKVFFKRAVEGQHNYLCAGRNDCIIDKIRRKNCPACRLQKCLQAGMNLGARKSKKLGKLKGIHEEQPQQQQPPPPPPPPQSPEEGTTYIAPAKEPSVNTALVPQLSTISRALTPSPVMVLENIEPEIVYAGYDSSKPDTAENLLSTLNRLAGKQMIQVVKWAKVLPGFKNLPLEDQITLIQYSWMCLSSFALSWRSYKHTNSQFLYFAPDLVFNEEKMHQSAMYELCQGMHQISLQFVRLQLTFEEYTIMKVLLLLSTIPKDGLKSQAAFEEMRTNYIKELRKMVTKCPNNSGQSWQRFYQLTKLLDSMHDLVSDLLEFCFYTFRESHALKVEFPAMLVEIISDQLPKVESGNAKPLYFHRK
Method: as §1, §2, §3

T1 sequence (P03372 whole entry): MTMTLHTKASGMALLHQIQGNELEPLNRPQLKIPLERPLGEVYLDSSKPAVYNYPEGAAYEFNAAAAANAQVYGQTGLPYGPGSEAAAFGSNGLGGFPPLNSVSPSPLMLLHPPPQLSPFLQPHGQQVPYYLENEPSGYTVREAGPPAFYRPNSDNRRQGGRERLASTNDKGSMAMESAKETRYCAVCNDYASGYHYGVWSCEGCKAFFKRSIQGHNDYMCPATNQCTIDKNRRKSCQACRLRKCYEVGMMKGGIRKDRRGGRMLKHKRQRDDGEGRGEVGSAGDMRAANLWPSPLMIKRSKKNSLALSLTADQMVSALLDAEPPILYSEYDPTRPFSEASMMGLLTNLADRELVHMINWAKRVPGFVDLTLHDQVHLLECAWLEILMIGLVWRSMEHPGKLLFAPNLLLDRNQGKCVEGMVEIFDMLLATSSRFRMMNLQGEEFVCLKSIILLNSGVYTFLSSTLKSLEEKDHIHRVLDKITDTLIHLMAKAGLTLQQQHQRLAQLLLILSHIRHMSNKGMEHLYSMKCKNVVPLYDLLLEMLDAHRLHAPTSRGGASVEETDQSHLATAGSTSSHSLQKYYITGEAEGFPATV

Q: CC(C)(O)C(=O)Nc1ccc([N+](=O)[O-])c(C(F)(F)F)c1 [Flut, 2-hydroxyflutamide, reference compound] was tested. Which EC50 (ER [1]; Table 2, read-out: ER Potency Agon) did it give?
A: > 10 µM

Q: What about the IC50 (ER [2]; Table 2, read-out: ER Potency Antag) of the same compound?
A: > 10 µM

Q: Which results are given for CC1COc2cc3[nH]c(=O)cc(C(F)(F)F)c3cc2N1CC(F)(F)F (racemic) [Compound 123, (±)-1,2,3,6-Tetrahydro-2-methyl-1-(2,2,2-trifluoroethyl)-9-(trifluoromethyl)-7H-[1,4]oxazino[3,2-g]quinolin-7-one]?
A: EC50 (hAR [3]; AR Agonist CV-1 Cells Potency (nM), hAR in CV-1 cells): 3.4 nM; EC50 (hAR [3]; AR Potency Agon (nM), Table 2): 3.4 nM; AR Agonist CV-1 Cells Efficacy (%) (hAR [3]; hAR in CV-1 cells, relative to maximum LUC production by reference agonist): 91%; IC50 (hAR [4]): > 10 µM; AR Antagonist CV-1 Cells Efficacy (%) (hAR [4]; hAR in CV-1 cells, maximal inhibition, DHT at EC50): na (na = not active (i.e. efficacy of < 20 and potency of > 10,000 nM for the cotransfection assay, and Ki > 1000 nM for the binding assay)); IC50 (hAR [4]; read-out: AR Potency Antag, Table 2): > 10 µM; EC50 (PR [5]): > 10 µM; IC50 (PR [6]): 2470 nM; EC50 (ER [1]): > 10 µM; IC50 (ER [2]): > 10 µM; IC50 (GR): 3.16 µM

Q: Which results are given for CCN1CCOc2cc3[nH]c(=O)cc(C(F)(F)F)c3cc21 [Compound 103, 1-Ethyl-1,2,3,6-tetrahydro-9-(trifluoromethyl)-7H-[1,4]oxazino[3,2-g]quinolin-7-one]?
A: EC50 (PR [5]): > 10 µM; IC50 (PR [6]): 4500 nM; EC50 (ER [1]): > 10 µM; IC50 (ER [2]): > 10 µM; IC50 (GR): > 10 µM; IC50 (MR): > 10000 nM

Q: What does the source list for CN1CCOc2cc3[nH]c(=O)cc(C(F)(F)F)c3cc21 [Compound 101, 1,2,3,6-Tetrahydro-1-methyl-9-(trifluoromethyl)-7H-[1,4]oxazino[3,2-g]quinolin-7-one]?
A: EC50 (PR [5]): > 10 µM; IC50 (PR [6]): > 10000 nM; EC50 (ER [1]): > 10 µM; IC50 (ER [2]): > 10 µM; IC50 (GR): 6.5 µM; IC50 (MR): > 10000 nM

Q: For O=c1cc(C(F)(F)F)c2cc3c(cc2[nH]1)OCCN3CC1CC1 [Compound 121, 1-Cyclopropylmethyl-1,2,3,6-tetrahydro-9-(trifluoromethyl)-7H-[1,4]oxazino[3,2-g]quinolin-7-one], which EC50 (PR [5]) is on record?
A: > 10 µM

Q: What about the IC50 (PR [6]) of the same compound?
A: 415 nM

Q: And the EC50 (ER [1])?
A: > 10 µM

Q: And the IC50 (ER [2])?
A: > 10 µM

Q: What about the IC50 (GR) of the same compound?
A: 1.05 µM

Q: What about the IC50 (MR) of the same compound?
A: 2570 nM

Q: With CC1CN(CC(F)(F)F)c2cc3c(C(F)(F)F)cc(=O)[nH]c3cc2O1 (racemic) [Compound 114, (±)-1,2,3,6-Tetrahydro-3-methyl-1-(2,2,2-trifluoroethyl)-9-(trifluoromethyl)-7H-[1,4]oxazino[3,2-g]quinolin-7-one] as the compound, how does the EC50 (PR [5]) read?
A: > 10 µM

Q: And the IC50 (PR [6])?
A: > 10000 nM

Q: And the EC50 (ER [1])?
A: > 10 µM

Q: What about the IC50 (ER [2]) of the same compound?
A: > 10 µM

Q: What about the IC50 (GR) of the same compound?
A: > 10 µM

Q: What about the IC50 (MR) of the same compound?
A: > 10000 nM

Q: What does the source list for C[C@]1(O)CC[C@H]2[C@@H]3CCC4=CC(=O)CC[C@]4(C)[C@@]3(F)[C@@H](O)C[C@@]21C [Fluox, fluoxymesterone]?
A: EC50 (PR [5]): 1.21 µM; IC50 (PR [6]): 224 nM; IC50 (GR): 0.263 µM; IC50 (MR): 193 nM

— patent US6462038B1, “Androgen receptor modulator compounds and methods” (Ligand Pharmaceuticals, Inc., priority 1999, dated 2002)
